Laboratory results taken from patent publication US10017489B2, “Method for preparing benzopyran compound and application thereof in treating pulmonary fibrosis” (SHANGHAI JIAO TONG UNIVERSITY, priority 2013, dated 2018).
Like-named read-outs stand apart in the source and are kept apart here.

Test system: Human lung fibroblasts, WI26 cell
Assay: Inhibitory effect on WI26 cells proliferation (CCK-8 assay)
Format: cell-based
Details: for inhibition at 15 µg/mL / inhibition at 30 µg/mL: Homo sapiens, Fibroblast, CCK-8; for toxicity to cell: based on dynamics of the inhibitory effect in FIG. 2; for inhibition at 30 µg/mL: read-out: inhibition rate, WI26 cells proliferation
Description: Cells: Human lung fibroblasts, WI26 cell;
Methods: wherein WI26 cells at 70-80% confluent were trysinized by 0.25% trypsin solution and seeded in 96-well plates at an initial density of 1×10^4 cells/mL. A medium was replaced 24 h later by the fresh with 15 μg/ml compound 1 and 1/1000 DMSO (drug treatment group 1 and its control) or 30 μg/ml compound 2 and 1/1000 DMSO (drug treatment group 2 and its control), then the medium was refreshed and cell viability was measured by using a CCK-8 method at day 0, 1, 2, 3, 4, 5, 6, respectively. Proliferation measurement was applied by adding 100 μL complete medium and 10 μL CCK-8 solutions to each well and incubating for 1 h. OD values of each well were measured at a primary wavelength λ=450 nm by using a Microplate Spectrophotometer. Data are shown as means±standard deviation (SD) of three independent experiments, each performed in triplicate.

| SMILES | inhibition at 15 µg/mL (15 μg/ml compound 1, day one) [%] | inhibition at 15 µg/mL (15 μg/ml compound 1, day six) [%] | toxicity to cell (normal human lung fibroblasts) | increase of inhibition compared with drug treatment group 2 (compound 2) (compound 1 at 15 μg/ml vs compound 2 at 30 μg/ml) [%] | effective concentration to inhibit normal human lung fibroblasts proliferation and activation (normal human lung fibroblasts) [µg/mL] | inhibition at 30 µg/mL (30 μg/ml compound 2, day one) [%] | inhibition at 30 µg/mL (30 μg/ml compound 2, day six) [%] |
| --- | --- | --- | --- | --- | --- | --- | --- |
| CC(C)=CCC[C@]1(C)Oc2ccc(C(N)=O)cc2C[C@@H]1O [compound 1, xiamenmycin C] | 13.8 | 38 | low toxicity | ~10 | 15 |  |  |
| CC(C)=CCC[C@]1(C)Oc2ccc(C(=O)N[C@H](C(=O)O)[C@@H](C)O)cc2C[C@@H]1O [compound 2, Xiamenmycin, reference compound] |  |  | low toxicity |  |  | 10 | 28.5 |
